From BindingDB's records for doi:10.1021/acs.jnatprod.3c01041 (National Cancer Institute, 2024)

Assays:
Paired box protein Pax-3 [1] = target: T1, Paired box protein Pax-3 (Homo sapiens, UniProt P23760); assay: Inhibition of PAX3-FOXO1 (unknown origin) fusion protein expressed human Rh4 cells cotransfected with CMV-Luc incubated for 24 hrs by Steady-Glo luciferase assay
Paired box protein Pax-3 [2] = target: T1, Paired box protein Pax-3; assay: Inhibition of PAX3-FOXO1 (unknown origin) fusion protein expressed human Rh4 cells cotransfected with ALK-Luc incubated for 24 hrs by Steady-Glo luciferase assay

T1 sequence (P23760 whole entry, the tested form may be a part): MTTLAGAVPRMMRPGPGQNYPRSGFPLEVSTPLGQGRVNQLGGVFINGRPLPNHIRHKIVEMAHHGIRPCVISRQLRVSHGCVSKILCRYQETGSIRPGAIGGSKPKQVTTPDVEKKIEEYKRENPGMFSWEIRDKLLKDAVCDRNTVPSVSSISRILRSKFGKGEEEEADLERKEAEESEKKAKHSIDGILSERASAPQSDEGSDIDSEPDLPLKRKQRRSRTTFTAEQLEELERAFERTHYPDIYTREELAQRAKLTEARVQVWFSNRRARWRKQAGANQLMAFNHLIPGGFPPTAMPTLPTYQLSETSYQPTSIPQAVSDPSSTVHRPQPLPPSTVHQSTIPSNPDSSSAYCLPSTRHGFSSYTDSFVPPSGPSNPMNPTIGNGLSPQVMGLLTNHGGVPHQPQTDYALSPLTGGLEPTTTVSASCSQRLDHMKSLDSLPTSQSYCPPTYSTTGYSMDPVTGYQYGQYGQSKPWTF

IC50 (Paired box protein Pax-3 [1]) [µM] | IC50 (Paired box protein Pax-3 [2]) [µM] | SMILES
9.4 | 5.4 | COC1=C(C)C(=O)c2c(cn(C)c(=O)c2NCCS(=O)(=O)Oc2c(C)c(OC)c(O)c3c[n+](C)ccc23)C1=O
9.8 | 5.7 | COC1=C(C)C(=O)c2c(cn(C)c(=O)c2NCCS(=O)(=O)Oc2c(C)c(OC)c(O)c3c[n+](C)c(C(=O)O)cc23)C1=O
11.8 | 6.4 | COC(=O)c1cc2c(OS(=O)(=O)CCNc3c4c(cn(C)c3=O)C(=O)C(OC)=C(C)C4=O)c(C)c(OC)c(O)c2c[n+]1C
